For experiment [1], the system named is ATCC CRL-1739 (KRASG^12D mutant) cells. Nature of the experiment: Tumor cell proliferation inhibition experiment (Cell Titer-Glo, 72 hours). Format: cell-based. The settings on record: 72 hours incubation, 10% fetal bovine serum, ATP content. As to the method: The ATCC CRL-1739 (KRASG^12D mutant) cells were digested, centrifuged and resuspended, and the cell density was measured with a Scepter automatic cell counter. The cells were diluted to a solution containing 44,000 cells per milliliter, and the density-adjusted cell solution was 90 per well. Microliters were added to a 96-well culture plate. The 96-well plate was placed in a 37° C., 5% CO2 incubator. After the cells were cultured for 24 hours, different concentrations of the compounds to be tested were added. The cells were incubated with the compounds for 72 hours in the presence of 10% fetal bovine serum. Glo Luminescent Cell Viability Assay Kit (see manufacturer's instructions for details) was used to measure ATP content to assess cell growth inhibition. Briefly, 30 μl of Cell Titer-Glo reagent was added to each well, and the plate was shaken for 10 minutes to induce cell lysis. FluoroskanAscentFL (Thermo) assay records the […], and the maximum signal value is obtained from cells treated with DMSO for 72 hours. The minimum signal value was obtained from the medium alone (the number of cells was zero), and the % inhibition rate=(the maximum signal value compound signal value)/(the maximum signal value−the minimum signal value×100%, and the data were processed using Graphpadprism 5 software. By sigmoid Dose-response curve fitting to calculate IC50 value. “A” means IC50≤50 nM; “B” means 50<IC50≤500 nM; “C” means 500<IC50≤2000 nM; “D” means 2000<IC50
Background: Cellular ATP, detected with luciferase, serves as a proxy for viable cell number.

For the next experiment, the target named is KRAS-G2D/SOS1 (Homo sapiens, UniProt P01116, G12D). Nature of the experiment: KRAS-G2D/SOS1 binding experiment (HTRF). The settings on record: His-tagged G12D protein and Tag1-SOS protein, room temperature. As to the method: • A) Dilute Tagged-His Tag G12D protein and Tag1-SOS protein with diluent at 1:100, and use detection buffer for anti-Tag1-Tb3+ antibody and anti-Tag2-XL665 at 1:100 or 1:25, respectively Dilute. • B) Dilute the compound to be tested with diluent starting from […] concentration, 4 times gradient, a total of 6 concentration gradients, and dilute to 10× stock solution. • C) In a 96-well plate, add 4 uL Tagged-His Tag G12D protein, 4 uL Tag1-SOS protein, 2 ul dilution solution (positive control) or test compound (different concentrations of 10× stock solution) to each well in sequence, a total of 10 ul, and incubate at room temperature for […], add pre-mixed 5 uL anti-Tag1-Tb3+ and 5 uL anti-Tag2-xL665, seal the plate, incubate at room temperature for 2 hours, and read the HTRF signal with a TECAN INFINITEF NANO+ microplate reader.
Chain of KRAS-G2D/SOS1 (P01116 1-188 isoform P01116-2 G12D): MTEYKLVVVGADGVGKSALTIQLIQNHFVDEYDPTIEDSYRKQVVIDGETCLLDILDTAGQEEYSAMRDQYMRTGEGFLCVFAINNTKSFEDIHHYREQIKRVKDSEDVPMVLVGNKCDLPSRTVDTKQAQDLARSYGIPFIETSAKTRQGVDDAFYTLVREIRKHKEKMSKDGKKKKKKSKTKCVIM
The ratio of […] and donor excitation signals for each single well was calculated using the formula ratio=665 nm signal value/620 nm signal value×[…]. Data were processed using Graphpadprism5 software. IC50 values were calculated by sigmoidal dose-response curve fitting.
In general terms: Time-resolved FRET reads energy transfer from a long-lived donor to a nearby acceptor.

One may read the IC50 as the concentration at which inhibition is half-maximal.

On to `C[C@@H]1CNCCN1c1nc(NCCN(C)C)nc2nc(-c3c(O)cccc3F)c(F)cc12` [Compound 1, 2-(2-((2-(dimethylamino)ethyl)amino)-6-fluoro-4-((R)-2-methylpiperazin-1-yl)pyrido[2,3-d]pyrimidin-7-yl)-3-fluorophenol], for which the values for the IC50 (in experiment [1]; on KRAS-G2D/SOS1) were above 2 µM and above 0.5 µM, respectively.
Turning to `C[C@@H]1CNCCN1c1nc(OC[C@@H]2CCCN2C)nc2nc(-c3c(O)cccc3F)c(F)cc12` [Compound 7, 3-fluoro-2-(6-fluoro-4-((R)-2-methylpiperazin-1-yl)-2-(((S)-1-methylpyrrolidin-2-yl)methoxy)pyrido [2,3-d]pyrimidin-7-yl)phenol], the IC50 in experiment [1] is above 2 µM; on KRAS-G2D/SOS1, above 0.5 µM.
In the same order, the values of `C[C@@H]1CNCCN1c1nc(OC[C@@H]2CCCN2C)nc2nc(-c3cccc4cccc(F)c34)c(F)cc12` [Compound 33, 6-fluoro-7-(8-fluoronaphthalen-1-y1)-4-((R)-2-methylpiperazin-1-y1)-2-(((S)-1-methylpyrrolidin-2-yl)methoxy)pyrido [2,3-d]pyrimidine] are 0.05 to 0.5 µM and 0.05 to 0.5 µM.
`C[C@@H]1CNCCN1c1nc(OC[C@@H]2CCCN2C)nc2nc(-c3cccc4cccc(Cl)c34)c(F)cc12` [Compound 34, 7-(8-chloronaphthalen-1-yl)-6-fluoro-4-((R)-2-methylpiperazin-1-yl)-2-(((S)-1-methylpyrrolidin-2-yl)methoxy)pyrido [2,3-d]pyrimidine]: the IC50 was 0.5 to 2 µM in experiment [1] and 0.05 to 0.5 µM at KRAS-G2D/SOS1.
In the same order, the values of `C[C@@H]1CNCCN1c1nc(OC[C@@H]2CCCN2C)nc2nc(-c3cc(O)cc4ccccc34)c(F)cc12` [Compound 36, 4-(6-fluoro-4-((R)-2-methylpiperazin-1-yl)-2-(((S)-1-methylpyrrolidin-2-yl)methoxy)pyrido [2,3-d]pyrimidin-7-yl)naphthalen-2-ol] are above 2 µM and at most 0.05 µM.
With `C[C@@H]1CNCCN1c1nc(OC[C@@H]2CCCN2C)nc2nc(-c3cc(O)cc4cccc(Cl)c34)c(F)cc12` [Compound 45, 5-chloro-4-(6-fluoro-4-((R)-2-methylpiperazin-1-yl)-2-(((S)-1-methylpyrrolidin-2-yl)methoxy)pyrido [2,3-d]pyrimidin-7-yl)naphthalen-2-ol], the IC50 in experiment [1] is 0.05 to 0.5 µM; at KRAS-G2D/SOS1 it was at most 0.05 µM.
In the same order, the values of `C[C@@H]1CNCCN1c1nc(OC[C@@H]2CCCN2C)nc2nc(-c3cc(O)cc4cccc(F)c34)c(F)cc12` [Compound 46, 5-fluoro-4-(6-fluoro-4-((R)-2-methylpiperazin-1-yl)-2-(((S)-1-methylpyrrolidin-2-yl)methoxy)pyrido [2,3-d]pyrimidin-7-yl)naphthalen-2-ol] are at most 0.05 µM and at most 0.05 µM.
Turning to `Oc1cc(-c2nc3nc(OC[C@@]45CCCN4C[C@H](F)C5)nc(N4C5CNCC4C5)c3cc2F)c2c(F)cccc2c1` [Compound 54, 4-(4-(3,6-diazabicyclo [3.1.1]heptan-6-y1)-6-fluoro-2-(((2R,7aS)-2-fluorohexahydro-1H-pyrrolizin-7a-yl)methoxy)pyrido[2,3-d]pyrimidin-7-y1)-5-fluoronaphthalen-2-ol], the half-maximal inhibitory concentration (IC50) (in experiment [1]; at KRAS-G2D/SOS1) was at most 0.05 µM in each case.
As for `Oc1cc(-c2nc3nc(OC[C@@]45CCCN4CC(F)C5)nc(N4CC5CCC(C4)N5)c3cc2F)c2c(F)cccc2c1` (stereo partly drawn) [Compound 56, 4-(4-((1R,5S)-3,8-diazabicyclo [3.2.1]octan-3-yl)-6-fluoro-2-(((2R,7aS)-2-fluorohexahydro-1H-pyrrolizin-7a-yl)methoxy)pyrido[2,3-d]pyrimidin-7-y1)-5-fluoronaphthalen-2-ol], the IC50 in experiment [1] was at most 0.05 µM.
For `Oc1cc(-c2nc3nc(OC[C@@]45CCCN4C[C@H](F)C5)cc(N4C[C@H]5CC[C@@H](C4)N5)c3cc2F)c2c(F)cccc2c1` [Compound 57, 4-(5-((1R,5S)-3,8-diazabicyclo[3.2.1]octan-3-yl)-3-fluoro-7-(((2R,7aS)-2-fluorohexahydro-1H-pyrrolizin-7a-yl)methoxy)-1,8-naphthyridin-2-yl)-5-fluoronaphthalen-2-ol], the IC50 (in experiment [1]; at KRAS-G2D/SOS1) was at most 0.05 µM throughout.
`C#Cc1c(F)ccc2cc(O)cc(-c3nc4nc(OC[C@@]56CCCN5C[C@H](F)C6)nc(N5C[C@H]6CC[C@@H](C5)N6)c4cc3F)c12` [Compound 58, 4-(4-((1R,5S)-3,8-diazabicyclo[3.2.1]octan-3-yl)-6-fluoro-2-(((2R,7aS)-2-fluorotetrahydro-1H-pyrrolizin-7a(5H)-yl)methoxy)pyrido[2,3-d]pyrimidin-7-yl)-5-ethynyl-6-fluoronaphthalen-2-ol]: the IC50 (in experiment [1]; at KRAS-G2D/SOS1) was at most 0.05 µM each time.
As for `CCc1c(F)ccc2cc(O)cc(-c3nc4nc(OC[C@@]56CCCN5C[C@H](F)C6)nc(N5C[C@H]6CC[C@@H](C5)N6)c4cc3F)c12` [Compound 59, 4-(4-((1R,5S)-3,8-diazabicyclo[3.2.1]octan-3-yl)-6-fluoro-2-(((2R,7aS)-2-fluorotetrahydro-1H-pyrrolizin-7a(5H)-yl)methoxy)pyrido[2,3-d]pyrimidin-7-yl)-5-ethyl-6-fluoronaphthalen-2-ol], in experiment [1], the IC50 is at most 0.05 µM.
